Assay results from patent US20100087475A1, “PHARMACEUTICAL COMPOUNDS” (Biovali Laboratories International (Barbados) S.R.L., priority 2008, published 2010).

Legend:
[1] = molecular target: T1, Dopamine D4.4 Receptor (Homo sapiens, UniProt P21917); assay: Radioligand binding, [3H] Spiperone; settings: compound at 10 μM
T1 construct: expressed in transfected cells; host or cells: CHO-K1 cells
T1 sequence (P21917 1-419): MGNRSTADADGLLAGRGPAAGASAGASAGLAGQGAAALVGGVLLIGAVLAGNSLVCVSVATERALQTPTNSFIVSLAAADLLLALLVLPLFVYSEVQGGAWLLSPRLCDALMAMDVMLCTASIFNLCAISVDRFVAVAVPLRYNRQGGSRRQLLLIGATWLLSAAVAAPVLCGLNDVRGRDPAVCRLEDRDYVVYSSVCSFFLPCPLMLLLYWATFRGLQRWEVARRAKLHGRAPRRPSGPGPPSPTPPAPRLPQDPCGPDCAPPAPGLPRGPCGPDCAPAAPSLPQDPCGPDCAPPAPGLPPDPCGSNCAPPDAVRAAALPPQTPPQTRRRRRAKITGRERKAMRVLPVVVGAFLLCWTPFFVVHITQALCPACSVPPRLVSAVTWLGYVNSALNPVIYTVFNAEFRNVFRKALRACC
Protocol: (§1) Compounds of the invention were subjected to specific binding assays to test their ability to bind to the receptors and transporter proteins described below.
(§2) (i) Dopamine D4.4 Receptor:
(§3) • Reference: Van Tol et al., Nature, 350:610-614 (1991) • Source: Human recombinant CHO-K1 cells • Ligand: 1.2 nM [^3H]

[2] = tested on: Imidazoline I2 (Central) Receptor; assay: Radioligand binding, [3H] Idazoxan, cerebral cortex; design: species or system Wistar rat; settings: compound at 10 μM
Protocol: as §1
(k) Imidazoline I2 (Central) Receptor:
• Reference: Brown et al., Brit. J. Pharmacol., 99:803-809, (1990) • Source: Wistar rat cerebral cortex • Ligand: 2 nM [^3H]

[3] = tested on: dopamine receptors; assay: Receptor binding studies, overall statement on dopamine receptors; design: species or system Human; settings: conclusion from % inhibition at 10 μM
Protocol: (d) Dopamine D1 Receptor:
• Reference: Dearry et al., Nature, 347:72-76, (1990) • Source: Human recombinant CHO cells • Ligand: 1.4 nM [3H] SCH-23390 • Vehicle: 1% DMSO • Incubation time/Temp: 2 hours @ 37° C. • Incubation buffer: 50 mM Tris-HCl, pH 7.4, 150 mM NaCl, 1.4 mM ascorbic acid, 0.001% BSA • Non Specific ligand: 10 μM (+)-butaclamol • Kd: 1.4 nM • Bmax: 0.63 pmole/mg protein • Specific binding: 90% • Quantitation method: Radioligand binding • Significance criteria: ≧50% of maximum stimulation or inhibition
(e) Dopamine D2L Receptor:
• Reference: Grandy et al., Proc. Natl. Acad. Sci. USA, 86:9762-9766 (1989) • Source: Human recombinant CHO cells • Ligand: 0.16 nM [^3H]
(f) Dopamine D2S Receptor:
(g) Dopamine D3 Receptor:
• Reference: Sokoloff et al., Nature, 347:146-151, (1990) • Source: Human recombinant CHO cells • Ligand: 0.7 nM [3H]
(h) Dopamine D4.2 Receptor:
• Reference: Van Tol et al., Nature, 350:610-614 (1991) • Source: Human recombinant CHO-K1 cells • Ligand: 0.5 nM [^3H]
as §2, §3
(j) Dopamine D4.7 Receptor:
• Reference: Van Tol et al., Nature, 350:610-614 (1991) • Source: Human recombinant CHO-K1 cells • Ligand: 1.5 nM [^3H]

Structure (SMILES)	% inhibition, (i) D4.4 Receptor [1] [%]	% inhibition, (k) I2 Receptor (central) [2] [%]	inhibition of dopamine receptors (result in words) [3]
COc1cc2c(cc1O)[C@@H]1C[C@@H](O)[C@H](CC(C)C)CN1CC2 (single isomer, unassigned) [(+)-10-desmethyl-γ-dihydrotetrabenazine]	33	24	–
COc1cc2c(cc1O)[C@@H]1C[C@@H](O)[C@H](CC(C)C)CN1CC2 (single isomer, unassigned) [(−)-10-desmethyl-γ-dihydrotetrabenazine]	81	66	potent inhibitor of dopamine receptors
